# Source: ChEMBL document CHEMBL5104211, “Design and synthesis of bile acid derivatives and their activity against colon cancer” (RSC Med Chem, 2022)
# pIC50: −log10 of the molar value. Active and inactive are the calls of the source. The rule behind the calls is not given here.
# Key:
# HCT-116 [1] = test: Induction of apoptosis in human HCT-116 cells assessed as increase in number of apoptotic cells at 30 micromol/L incubated for 48 hrs by DAPI staining based fluorescence microscopy; assay type: functional, cell-based; conditions: dose 30.0 µmol/L
# HCT-116 [2] = test: Induction of apoptosis in human HCT-116 cells assessed as retraction of the nucleus at 30 micromol/L incubated for 48 hrs by Giemsa staining based fluorescence microscopy; assay type: functional, cell-based; conditions: dose 30.0 µmol/L
# HCT-116 [3] = test: […] activity in human HCT-116 cells assessed as upregulation of cleaved caspase-3 level at 30 micromol/L incubated for 48 hrs by Western blot analysis; assay type: functional, cell-based; conditions: dose 30.0 µmol/L
# HCT-116 [4] = test: Inhibition of cell invasion in human HCT-116 cells at 20 micromol/L and measured after 24 hrs by crystal violet staining based transwell assay; assay type: functional; conditions: HCT-116, 24 h, dose 20 µmol/L
# HCT-116 [5] = test: Anticancer activity against human HCT-116 cells assessed as decrease in size of colonies at 25 micromol/L and measured after 48 hrs by crystal violet dye based colony formation assay; assay type: functional, cell-based; conditions: dose 25.0 µmol/L
# Huh-7 = test: Anticancer activity against human Huh-7 cells assessed as inhibition of cell proliferation by MTT assay; assay type: functional, cell-based
# SK-HEP1 = test: Anticancer activity against human SK-HEP1 cells assessed as inhibition of cell proliferation by MTT assay; assay type: functional, cell-based
# [6] = Cytotoxicity against human WI-38 cells assessed as inhibition of cell proliferation by MTT assay; assay type: toxicity, cell-based
# HCT-116 [7] = test: Induction of apoptosis in human HCT-116 cells assessed as unclear cell rupture edges at 30 micromol/L incubated for 48 hrs by Giemsa staining based fluorescence microscopy; assay type: functional; conditions: dose 30.0 µmol/L
# HT-29 = test: Anticancer activity against human HT-29 cells assessed as inhibition of cell proliferation by MTT assay; assay type: functional, cell-based
# HCT-116 [8] = test: Anticancer activity against human HCT-116 cells assessed as inhibition of cell proliferation at 5 to 50 micromol/L incubated for 24 hrs by MTT assay; assay type: functional, cell-based; conditions: dose 5-50 µmol/L, DDE = dose-dependent effect
# HCT-116 [9] = test: Induction of apoptosis in human HCT-116 cells assessed as late apoptotic cells at 30 micromol/L incubated for 48 hrs by annexin V-FITC and propidium iodide staining based flow cytometry analysis (reference value: 7.13%); assay type: functional; conditions: dose 30 µmol/L, at 30 µM
# HCT-116 [10] = test: Inhibition of cell migration in human HCT-116 cells at 20 micromol/L and measured after 24 hrs by crystal violet staining based transwell assay; assay type: functional; conditions: HCT-116, 24 h, dose 20 µmol/L
# HCT-116 [11] = test: Induction of apoptosis in human HCT-116 cells assessed as early apoptotic cells at 30 micromol/L incubated for 48 hrs by annexin V-FITC and propidium iodide staining based flow cytometry analysis (reference value: 2.69%); assay type: functional; conditions: dose 30 µmol/L, at 30 µM
# HCT-116 [12] = test: Induction of apoptosis in human HCT-116 cells assessed as contraction of cell volume at 30 micromol/L incubated for 48 hrs by Giemsa staining based fluorescence microscopy; assay type: functional; conditions: dose 30.0 µmol/L
# HCT-116 [13] = test: Anticancer activity against human HCT-116 cells assessed as inhibition of cell proliferation by MTT assay; assay type: functional, cell-based
# HCT-116 [14] = test: Induction of mitochondrial membrane potential loss in human HCT-116 cells and measured after 48 hrs by TRME staining based flow cytometric analysis (reference value: 97.52%); assay type: functional
# MGC-803 = test: Anticancer activity against human MGC-803 cells assessed as inhibition of cell proliferation by MTT assay; assay type: functional, cell-based
# HCT-116 [15] = test: Induction of apoptosis in human HCT-116 cells assessed as retraction of the cytoplasm at 30 micromol/L incubated for 48 hrs by Giemsa staining based fluorescence microscopy; assay type: functional, cell-based; conditions: dose 30.0 µmol/L
# RKO = test: Anticancer activity against human RKO cells assessed as inhibition of cell proliferation by MTT assay; assay type: functional, cell-based
# HCT-116 [16] = test: Induction of apoptosis in human HCT-116 cells assessed as apoptotic body formation at 30 micromol/L incubated for 48 hrs by Giemsa staining based fluorescence microscopy; assay type: functional, cell-based; conditions: dose 30.0 µmol/L
# HCT-116 [17] = test: Induction of apoptosis in human HCT-116 cells assessed as viable cells at 30 micromol/L incubated for 48 hrs by annexin V-FITC and propidium iodide staining based flow cytometry analysis (reference value: 89.29%); assay type: functional; conditions: HCT-116, 48 h, dose 30 µmol/L, read-out: Activity
# A549 = test: Anticancer activity against human A549 cells assessed as inhibition of cell proliferation by MTT assay; assay type: functional, cell-based
# RAW264.7 [18] = test: Anti-inflammatory activity against mouse RAW264.7 cells assessed as downregulation of LPS-induced TNF-alpha level at 10 to 25 micromol/L incubated for 24 hrs in presence of LPS by ELISA; assay type: functional, cell-based; conditions: dose 10-25 µmol/L
# SW480 = test: Anticancer activity against human SW480 cells assessed as inhibition of cell proliferation by MTT assay; assay type: functional, cell-based
# HCT-116 [19] = test: Induction of cell cycle arrest in human HCT-116 cells assessed as accumulation G2/M phase at 25 micromol/L and measured after 48 hrs by propidium iodide staining based flow cytometry analysis (Rvb= 11%); assay type: functional; conditions: dose 25 µmol/L, at 25 µM
# HCT-116 [20] = test: Induction of ROS generation in human HCT-116 cells assessed as increase in intracellular ROS level incubated for 48 hrs by DCFH-DA staining based flow cytometric analysis (Rvb=73.65%); assay type: functional
# HCT-116 [21] = test: Anticancer activity against human HCT-116 cells assessed as decrease in number of colonies at 25 micromol/L and measured after 48 hrs by crystal violet dye based colony formation assay; assay type: functional, cell-based; conditions: dose 25.0 µmol/L
# HCT-116 [22] = test: Anticancer activity in human HCT-116 cells assessed as downregulation of phosphorylated STAT3 level at 30 micromol/L incubated for 48 hrs by Western blot analysis; assay type: functional, cell-based; conditions: dose 30.0 µmol/L
# HCT-116 [23] = test: Induction of apoptosis in human HCT-116 cells assessed as necrotic cells at 30 micromol/L incubated for 48 hrs by annexin V-FITC and propidium iodide staining based flow cytometry analysis (reference value: 0.88%); assay type: functional; conditions: dose 30 µmol/L, at 30 µM
# LoVo = test: Anticancer activity against human LoVo cells assessed as inhibition of cell proliferation by MTT assay; assay type: functional, cell-based
# HCT-116 [24] = test: Anticancer activity against human HCT-116 cells assessed as inhibition of cell proliferation at 20 to 40 micromol/L incubated for 24 to 72 hrs by MTT assay; assay type: functional, cell-based; conditions: dose 20-40 µmol/L, time 24-72 hrs, TDE = time-dependent effect
# RAW264.7 [25] = test: Anti-inflammatory activity against mouse RAW264.7 cells assessed as inhibition of LPS-induced NO production incubated for 24 hrs in presence of LPS by Griess reagent-based assay; assay type: functional, cell-based; conditions: RAW264.7, 24 h
# HCT-116 [26] = test: […] activity in human HCT-116 cells assessed as downregulation of Bcl-2 level at 30 micromol/L incubated for 48 hrs by Western blot analysis; assay type: functional, cell-based; conditions: dose 30.0 µmol/L
# HCT-116 [27] = test: Anticancer activity against human HCT-116 cells assessed as inhibition of cell proliferation at 40 micromol/L incubated for 24 hrs by MTT assay; assay type: functional; conditions: HCT-116, 24 h, dose 40 µmol/L
# HCT-116 [28] = test: Anticancer activity against human HCT-116 cells assessed as inhibition of cell proliferation at 20 micromol/L incubated for 24 hrs by MTT assay; assay type: functional; conditions: HCT-116, 24 h, dose 20 µmol/L
pIC50 (Huh-7),pIC50 (SK-HEP1),pIC50 (HT-29),pIC50 (HCT-116 [13]),pIC50 (MGC-803),pIC50 (A549),SMILES,Activity (HCT-116 [2]),Activity (HCT-116 [5]),pIC50 [6],Activity (HCT-116 [7]),inhibition (HCT-116 [8]),Activity (HCT-116 [9]),inhibition at 20 µM (HCT-116 [10]),Activity (HCT-116 [11]),Activity (HCT-116 [12]),Activity (HCT-116 [14]),Activity (HCT-116 [15]),pIC50 (RKO),Activity (HCT-116 [16]),viability at 30 µM (HCT-116 [17]),also measured
4.28,4.38,4.57,4.60,4.54,4.29,COC(=O)c1ccc(COC(=O)CC[C@@H](C)[C@H]2CC[C@H]3[C@@H]4[C@H](O)C[C@@H]5C[C@H](O)CC[C@]5(C)[C@H]4C[C@H](O)[C@]23C)cc1,Active,Active,< 3.30,Active,Dde,74.4%,80%,1.33%,Active,71.17%,Active,4.38,Active,23.1%,Activity (HCT-116 [1]): Active; Activity (HCT-116 [3]): Active; inhibition at 20 µM (HCT-116 [4]): 80%; Activity (RAW264.7 [18]): Active; pIC50 (SW480): 4.50; Activity (HCT-116 [19]): 89.39%; Activity (HCT-116 [20]): 91.33%; Activity (HCT-116 [21]): Active; Activity (HCT-116 [22]): Active; Activity (HCT-116 [23]): 1.19%; pIC50 (LoVo): 4.55; inhibition (HCT-116 [24]): Tde; pIC50 (RAW264.7 [25]): 4.69; Activity (HCT-116 [26]): Active
3.90,4.30,4.55,4.63,4.58,4.46,COc1cc(COC(=O)CC[C@@H](C)[C@H]2CC[C@H]3[C@@H]4[C@H](O)C[C@@H]5C[C@H](O)CC[C@]5(C)[C@H]4C[C@H](O)[C@]23C)cc(OC)c1,Active,Active,< 3.30,Active,Dde,76.88%,80%,2.01%,Active,70.35%,Active,4.50,Active,19.5%,Activity (HCT-116 [1]): Active; inhibition at 40 µM (HCT-116 [27]): 90%; inhibition at 20 µM (HCT-116 [4]): 80%; inhibition at 20 µM (HCT-116 [28]): < 40%; Activity (RAW264.7 [18]): Active; pIC50 (SW480): 4.55; Activity (HCT-116 [19]): 89.77%; Activity (HCT-116 [20]): 93.87%; Activity (HCT-116 [21]): Active; Activity (HCT-116 [22]): Active; Activity (HCT-116 [23]): 1.65%; pIC50 (LoVo): 4.64; inhibition (HCT-116 [24]): Tde; pIC50 (RAW264.7 [25]): 4.69; Activity (HCT-116 [26]): Active
4.20,4.14,4.46,4.66,4.66,4.34,C[C@H](CCC(=O)OCc1ccc([N+](=O)[O-])cc1)[C@H]1CC[C@H]2[C@@H]3[C@H](O)C[C@@H]4C[C@H](O)CC[C@]4(C)[C@H]3C[C@H](O)[C@]12C,Active,Active,< 3.30,Active,Dde,84.27%,80%,0.93%,Active,58.32%,Active,4.53,Active,13.8%,Activity (HCT-116 [1]): Active; inhibition at 40 µM (HCT-116 [27]): 90%; inhibition at 20 µM (HCT-116 [4]): 80%; inhibition at 20 µM (HCT-116 [28]): < 40%; Activity (RAW264.7 [18]): Active; pIC50 (SW480): 4.50; Activity (HCT-116 [19]): 93.18%; Activity (HCT-116 [20]): 97.06%; Activity (HCT-116 [21]): Active; Activity (HCT-116 [22]): Active; Activity (HCT-116 [23]): 0.96%; pIC50 (LoVo): 4.61; inhibition (HCT-116 [24]): Tde; pIC50 (RAW264.7 [25]): 4.69; Activity (HCT-116 [26]): Active
4.13,4.30,4.54,4.54,4.50,3.92,COC(=O)c1ccc(COC(=O)CC[C@@H](C)[C@H]2CC[C@H]3[C@@H]4[C@H](O)C[C@@H]5C[C@H](O)CC[C@]5(C)[C@H]4CC[C@]23C)cc1,Active,Active,< 3.30,Active,Dde,62.13%,30%,2.12%,Active,79.08%,Active,4.35,Active,34.9%,Activity (HCT-116 [3]): Active; pIC50 (SW480): 4.44; Activity (HCT-116 [19]): 63.98%; Activity (HCT-116 [20]): 85.75%; Activity (HCT-116 [21]): Active; Activity (HCT-116 [22]): Active; Activity (HCT-116 [23]): 0.89%; pIC50 (LoVo): 4.55; inhibition (HCT-116 [24]): Tde; Activity (HCT-116 [26]): Active
4.29,4.22,4.64,4.67,4.66,4.39,Cc1ccc(COC(=O)CC[C@@H](C)[C@H]2CC[C@H]3[C@@H]4[C@H](O)C[C@@H]5C[C@H](O)CC[C@]5(C)[C@H]4C[C@H](O)[C@]23C)cc1,Active,Active,< 3.30,Active,Dde,72.61%,80%,1.3%,Active,51.59%,Active,4.56,Active,25.3%,Activity (HCT-116 [1]): Active; inhibition at 40 µM (HCT-116 [27]): 90%; inhibition at 20 µM (HCT-116 [4]): 80%; inhibition at 20 µM (HCT-116 [28]): < 40%; Activity (RAW264.7 [18]): Active; pIC50 (SW480): 4.63; Activity (HCT-116 [19]): 90.66%; Activity (HCT-116 [20]): 95.87%; Activity (HCT-116 [21]): Active; Activity (HCT-116 [22]): Active; Activity (HCT-116 [23]): 0.81%; pIC50 (LoVo): 4.73; inhibition (HCT-116 [24]): Tde; pIC50 (RAW264.7 [25]): 4.69; Activity (HCT-116 [26]): Active
